Numbering of substitutions follows the chain as printed.
What was measured:
LNCaP cells = assay: Assay on inhibitory activity for LNCaP cell proliferation (CCK-8); format: cell-based; details: 168 h incubation
Method in brief: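 Cells seeded at 1×10^5 cells/mL in phenol red-free 1640 with 2% CSS-FBS, treated at final 10000 nM-0.61 nM in duplicate. After 168 h incubation, viability read with CCK-8.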

[1] = In vitro stability in liver microsome; format: in vitro ADME; details: human liver microsome 0.5 mg/mL, NADPH, 37° C.
Experimental: Liver microsome incubation samples (species: human, monkey, rat, and mouse) were prepared by mixing a PBS buffer (pH=7.4), a liver microsome solution (0.5 mg/mL), a test compound, and an NADPH+MgCl2 solution and incubated at 37° C. and 300 rpm for 1 h. Zero-hour samples were prepared by mixing a PBS buffer (pH=7.4), a liver microsome solution (0.5 mg/mL), and a test compound. An acetonitrile solution containing an internal standard was added to the samples, and supernatants were prepared by protein precipitation, diluted, and then assayed by LC/MS/MS.

AR in VCaP cells = molecular target: T1, AR in VCaP cells (Homo sapiens, UniProt P10275); assay: Assay on degradation activity for AR in VCaP cells (HTRF human androgen receptor detection kit); format: cell-based; details: 24 h incubation
T1 construct: Assay on Degradation Activity for AR in VCaP Cells; endogenous in cells; host or cells: VCaP cells
T1 sequence (P10275 1-920): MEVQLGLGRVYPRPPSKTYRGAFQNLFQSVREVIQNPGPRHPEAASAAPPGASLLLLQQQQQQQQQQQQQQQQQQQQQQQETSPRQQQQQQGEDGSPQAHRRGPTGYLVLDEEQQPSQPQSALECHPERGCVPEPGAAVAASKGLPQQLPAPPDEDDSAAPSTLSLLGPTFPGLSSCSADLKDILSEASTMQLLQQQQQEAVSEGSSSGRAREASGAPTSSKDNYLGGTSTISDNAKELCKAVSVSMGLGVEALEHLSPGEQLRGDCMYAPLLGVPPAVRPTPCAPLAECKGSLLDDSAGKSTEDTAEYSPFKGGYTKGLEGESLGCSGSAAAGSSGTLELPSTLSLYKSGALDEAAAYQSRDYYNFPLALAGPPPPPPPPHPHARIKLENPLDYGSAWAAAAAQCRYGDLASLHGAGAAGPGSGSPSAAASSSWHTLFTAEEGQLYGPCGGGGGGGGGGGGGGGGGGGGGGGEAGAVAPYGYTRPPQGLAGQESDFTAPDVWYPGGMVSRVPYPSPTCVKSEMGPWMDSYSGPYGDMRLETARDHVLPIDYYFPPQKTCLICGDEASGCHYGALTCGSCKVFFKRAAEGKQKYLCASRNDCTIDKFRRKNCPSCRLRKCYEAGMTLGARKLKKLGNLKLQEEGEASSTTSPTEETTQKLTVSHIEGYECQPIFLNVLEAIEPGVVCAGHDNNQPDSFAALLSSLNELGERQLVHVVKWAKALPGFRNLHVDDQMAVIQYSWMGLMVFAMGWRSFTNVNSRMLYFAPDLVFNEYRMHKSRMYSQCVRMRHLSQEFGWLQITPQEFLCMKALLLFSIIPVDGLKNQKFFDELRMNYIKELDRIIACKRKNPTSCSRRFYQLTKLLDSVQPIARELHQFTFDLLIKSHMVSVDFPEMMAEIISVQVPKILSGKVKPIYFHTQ
Experimental: (§1) The detection was carried out using the HTRF HUMAN ANDROGEN RECEPTOR DETECTION KIT (cisbio, 64ANDRPEG), 4× Supplemented Lysis buffer was prepared using the Blocking reagent stock solution (100×) and Lysis buffer stock solution (4×), and 1× Supplemented Lysis buffer was prepared using the 4× Supplemented Lysis buffer and ddH2O. Premixed antibody solutions were prepared using Detection buffer, Androgen Receptor Eu Cryptate antibody, and Androgen Receptor d2 antibody.
(§2) VCaP cells in a good growth state were taken, washed with PBS, digested with pancreatin, and added with 2% CSS—FBS phenol red-free DMEM complete medium to terminate the digestion. The cells were collected by using a centrifuge tube, adjusted to a cell density of 1×10^6 cells/mL, and seeded in a 96-well plate (100 µL/well). The cells were incubated overnight in a cell incubator. Compounds were added using a nanoliter pipettor such that the final concentrations of the compounds were 1000 nM-0.977 nM. Two duplicate wells were set for each concentration, and meanwhile, a control was set. After another 24 h of incubation in the cell incubator, the medium was pipetted out, the 1× Supplemented Lysis buffer was added at 40 μL/well to lyse the cells. After the cells were oscillated for 40 min at room temperature, 16 μL of the cell lysate was added to a 384-well plate, the Premixed antibody solutions were added at 4 μL/well, and the mixture was left to stand at 25° C. for 2 h. Fluorescence values were detected at 665 nm/620 nm using an Envision microplate reader, the four-parameter analysis was performed, the dose-response curves were fit, and DC50 (the concentration of the drug when the degradation rate reaches 50%) and Dmax (the maximum degradation rate) were calculated.

AR in LNCaP cells = molecular target: T2, AR in LNCaP cells (Homo sapiens, UniProt P10275, T878A); assay: Assay on degradation activity for AR in LNCaP cells (HTRF human androgen receptor detection kit); format: cell-based; details: 24 h incubation; for DC50: HTRF
T2 construct: Assay on Degradation Activity for AR in LNCaP Cells; endogenous in cells; host or cells: LNCaP cells
T2 sequence (P10275 1-920 T878A): T1 sequence (P10275 1-920) with T878A
Experimental: as §1
as §2, with “LNCaP” for “VCaP”, “1640” for “DMEM”, “μL/well).” for “µL/well).”, “500 nM-0.488” for “1000 nM-0.977”

VCaP cells = assay: Assay on inhibitory activity for VCaP cell proliferation (CCK-8); format: cell-based; details: 168 h incubation
Method in brief: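 VCaP cells seeded at 1×10^5 cells/mL in phenol red-free DMEM with 5% charcoal-stripped FBS, treated in duplicate at 10000–0.61 nM final. After 168 h incubation, viability was read with CCK-8.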

N#Cc1ccc(O[C@H]2CC[C@H](NC(=O)c3ccc(N4CCC5(CC4)CN(C4Cc6ccc7c(C8CCC(=O)NC8=O)noc7c6C4)C5)nn3)CC2)cc1Cl (single isomer, unassigned) [Compound 24]
IC50 (LNCaP cells; Homo sapiens): < 1000 nM | Human liver microsome Residuals at 60 min (%) [1]: >85%

N#Cc1ccc(O[C@H]2CC[C@H](NC(=O)c3ccc(N4CCC5(CC4)CN(C4Cc6ccc7c(C8CCC(=O)NC8=O)noc7c6C4)C5)nn3)CC2)cc1Cl (single isomer, unassigned) [Compound 25]
IC50 (LNCaP cells): < 1000 nM | Human liver microsome Residuals at 60 min (%) [1]: >85%

N#Cc1ccc(O[C@H]2CC[C@H](NC(=O)c3ccc(N4CCC5(CC4)CC(CN4CCc6c(ccc7c(C8CCC(=O)NC8=O)noc67)C4)C5)nn3)CC2)cc1Cl (some centres unmarked) [Compound 36]
DC50 (AR in VCaP cells): ≤ 1 nM | DC50 (AR in LNCaP cells): ≤ 20 nM | Dmax (AR in LNCaP cells; maximum degradation rate): > 80% | IC50 (VCaP cells; Homo sapiens): < 10 nM | IC50 (LNCaP cells; Homo sapiens): < 1000 nM

N#Cc1ccc(O[C@H]2CC[C@H](NC(=O)c3ccc(N4CCC5(CC4)CC(CN4CCc6ccc7c(C8CCC(=O)NC8=O)noc7c6CC4)C5)nn3)CC2)cc1Cl (some centres unmarked) [Compound 37]
DC50 (AR in VCaP cells): ≤ 1 nM | DC50 (AR in LNCaP cells): ≤ 20 nM | Dmax (AR in LNCaP cells; maximum degradation rate): > 80% | IC50 (VCaP cells; Homo sapiens): < 100 nM | IC50 (LNCaP cells; Homo sapiens): < 1000 nM

N#Cc1ccc(O[C@H]2CC[C@H](NC(=O)c3ccc(N4CCC(N5CC(CN6CCc7ccc8c(C9CCC(=O)NC9=O)noc8c7C6)C5)CC4)nn3)CC2)cc1Cl (some centres unmarked) [Compound 91]
DC50 (AR in VCaP cells): ≤ 1 nM | DC50 (AR in LNCaP cells): ≤ 20 nM | Dmax (AR in LNCaP cells; maximum degradation rate): > 80% | IC50 (VCaP cells; Homo sapiens, VCaP, 168 h): < 10 nM | IC50 (LNCaP cells; Homo sapiens): < 1000 nM

N#Cc1ccc(O[C@H]2CC[C@H](NC(=O)c3ccc(N4CCC(N5CC(CN6Cc7ccc8c(C9CCC(=O)NC9=O)coc8c7C6)C5)CC4)nn3)CC2)cc1Cl (some centres unmarked) [Compound 98]
DC50 (AR in VCaP cells): ≤ 1 nM | DC50 (AR in LNCaP cells): ≤ 20 nM | Dmax (AR in LNCaP cells; maximum degradation rate): > 80% | IC50 (VCaP cells; Homo sapiens, VCaP, 168 h): < 100 nM | IC50 (LNCaP cells; Homo sapiens): < 1000 nM

N#Cc1ccc(O[C@H]2CC[C@H](NC(=O)c3ccc(N4CCC(CN5CC(CN6Cc7cc8onc(C9CCC(=O)NC9=O)c8cc7C6)C5)CC4)nn3)CC2)cc1Cl (some centres unmarked) [Compound 102]
DC50 (AR in VCaP cells): ≤ 1 nM | DC50 (AR in LNCaP cells): ≤ 20 nM | Dmax (AR in LNCaP cells; maximum degradation rate): > 80% | IC50 (VCaP cells; Homo sapiens, VCaP, 168 h): < 10 nM | IC50 (LNCaP cells; Homo sapiens): < 1000 nM

N#Cc1ccc(O[C@H]2CC[C@H](NC(=O)c3ccc(N4CCN(C5CN(CC6Cc7ccc8c(C9CCC(=O)NC9=O)coc8c7C6)C5)CC4)nn3)CC2)cc1Cl (some centres unmarked) [Compound 107]
DC50 (AR in VCaP cells): ≤ 1 nM | DC50 (AR in LNCaP cells): ≤ 20 nM | Dmax (AR in LNCaP cells; maximum degradation rate): > 80% | IC50 (VCaP cells; Homo sapiens, VCaP, 168 h): < 10 nM | IC50 (LNCaP cells; Homo sapiens): < 1000 nM

N#Cc1ccc(O[C@H]2CC[C@H](NC(=O)c3cnc(N4CCN(C5CN(CC6Cc7ccc8c(C9CCC(=O)NC9=O)coc8c7C6)C5)CC4)nc3)CC2)cc1Cl (some centres unmarked) [Compound 109]
DC50 (AR in VCaP cells): ≤ 1 nM | DC50 (AR in LNCaP cells): ≤ 20 nM | Dmax (AR in LNCaP cells; maximum degradation rate): > 80% | IC50 (VCaP cells; Homo sapiens, VCaP, 168 h): < 100 nM | IC50 (LNCaP cells; Homo sapiens): < 1000 nM

N#Cc1ccc(O[C@H]2CC[C@H](NC(=O)c3cnc(N4CCN(C5CN(CC6Cc7ccc8c(C9CCC(=O)NC9=O)coc8c7C6)C5)CC4)nc3)CC2)cc1Cl (some centres unmarked) [Compound 110]
DC50 (AR in VCaP cells): ≤ 1 nM | DC50 (AR in LNCaP cells): ≤ 20 nM | Degradation activity for AR in LNCaP cells (Dmax, %) (AR in LNCaP cells; maximum degradation rate): >80% | IC50 (VCaP cells): < 100 nM | IC50 (LNCaP cells): < 1000 nM

CN(c1ccc(C#N)c(Cl)c1)[C@H]1CC[C@H](NC(=O)c2ccc(N3CC(CN4CCc5c(ccc6c(C7CCC(=O)NC7=O)noc56)C4)C3)cc2)CC1 (some centres unmarked) [Compound 113]
DC50 (AR in VCaP cells): ≤ 1 nM | IC50 (VCaP cells; Homo sapiens): < 100 nM | IC50 (LNCaP cells; Homo sapiens): < 1000 nM

CN(c1ccc(C#N)c(Cl)c1)[C@H]1CC[C@H](NC(=O)c2cnc(N3CCC(CN4CCc5c(ccc6c(C7CCC(=O)NC7=O)noc56)C4)CC3)nc2)CC1 (some centres unmarked) [Compound 117]
DC50 (AR in VCaP cells): ≤ 1 nM | DC50 (AR in LNCaP cells): ≤ 20 nM | Dmax (AR in LNCaP cells; maximum degradation rate): > 80% | IC50 (VCaP cells; Homo sapiens): < 100 nM | IC50 (LNCaP cells; Homo sapiens): < 1000 nM

CN(c1ccc(C#N)c(Cl)c1)[C@H]1CC[C@H](NC(=O)c2ccc(N3CCC(CN4CCc5c(ccc6c(C7CCC(=O)NC7=O)noc56)C4)CC3)nn2)CC1 (some centres unmarked) [Compound 118]
DC50 (AR in VCaP cells): ≤ 1 nM | DC50 (AR in LNCaP cells): ≤ 20 nM | Dmax (AR in LNCaP cells; maximum degradation rate): > 80% | IC50 (VCaP cells; Homo sapiens): < 100 nM | IC50 (LNCaP cells; Homo sapiens): < 1000 nM

N#Cc1ccc(O[C@H]2CC[C@H](NC(=O)c3cnc(N4CCC(CN5CCc6c(ccc7c(C8CCC(=O)NC8=O)noc67)C5)CC4)cn3)CC2)cc1Cl (some centres unmarked) [Compound 145]
DC50 (AR in VCaP cells): ≤ 1 nM | DC50 (AR in LNCaP cells): ≤ 20 nM | Dmax (AR in LNCaP cells; maximum degradation rate): > 80% | IC50 (VCaP cells; Homo sapiens): < 100 nM | IC50 (LNCaP cells; Homo sapiens): < 1000 nM

Source: US20260035384A1, “COMPOUND CONTAINING CYCLOHEXYL” (CHIA TAI TIANQING PHARMACEUTICAL GROUP CO., LTD., priority 2022, published 2026)
